According to patent US12350249B2, “Efficient anti-bacterial hydroxy acid ester oligomer” (NANJING BIOSERICA ERA BIOLOGICAL TECHNOLOGY CO., LTD., priority 2020, dated 2025):
≈ marks a conversion by molar mass, not a printed value.

What was measured:
[1] = test system: Escherichia coli ATCC25922; assay: Minimum Inhibitory Concentration Test (Nutrition Broth Method), Table 3; assay type: cell-based
Protocol: (§1) Anti-bacterial tests and c log P theoretical calculation are performed on the products of the embodiment 2 and the embodiment 3, as shown in Table 3. [table]

[2] = test system: Escherichia coli ATCC25922; assay: Minimum inhibitory concentration MIC (agar method), Table 3; assay type: cell-based
Protocol: as §1

S. aureus = conditions: disclosed in CN110452115A; cited from earlier work
K. pneumoniae = conditions: disclosed in CN110452115A; cited from earlier work
C. albicans = conditions: disclosed in CN110452115A; cited from earlier work
[3] = test system: Escherichia coli ATCC 25922; assay: Anti-bacterial experiment, GB/T 20944.3-2008 shake flask method; assay type: cell-based
Protocol: Adding 10 g of 3-hydroxybutyrate ethyl ester and 0.01 g of zinc acetate (i.e. a mass ratio of 3-hydroxybutyrate ethyl ester is 0.1%) in a three-necked flask with mechanical stirring, a thermometer and a distillation device, wherein a stirring speed is approximately 150 revolutions; under an environment with a trace of nitrogen, increasing a temperature to 150° C. with a speed of 0.5-3° C./min to react for 1 hour, then stopping reaction to obtain a 3-HB oligomer; detecting a degree of polymerization by a mass spectrometry, wherein an anti-bacterial experiment refers to GB/T 20944.3-2008 Textiles-Evaluation for anti-bacterial activity-Part 3: Shake flask method, a strain used is Escherichia coli ATCC 25922.

## CCOC(=O)C[C@@H](C)O [Embodiment 2-2, R-(−)-3-hydroxybutyrate ethyl ester]
[1]
  MIC: 31.2 µg/mL (≈ 236 µM)
[2]
  Minimum inhibitory concentration MIC (agar method): 5%

## CCOC(=O)[C@@H](C)O [Embodiment 3-2, R-(−)-lactate ethyl ester]
[1]
  MIC: 35.5 µg/mL (≈ 301 µM)
[2]
  Minimum inhibitory concentration MIC (agar method): 5.25%

## poly-3-hydroxybutyrate oligomer
S. aureus
  minimum inhibitory concentration (MIC): 6250 µg/mL
K. pneumoniae
  minimum inhibitory concentration (MIC): 12500 µg/mL
C. albicans
  minimum inhibitory concentration (MIC): 25000 µg/mL

## R-(−)-3-hydroxybutyrate ethyl ester oligomer [Embodiment 1-3]
[3]
  Anti-bacterial rate (%): 99%

## CCCCCOC(=O)C[C@@H](C)O [Embodiment 2-5, R-(−)-3-hydroxybutyrate pentyl ester]
[1]
  MIC: 3.91 µg/mL (≈ 22.4 µM)
[2]
  Minimum inhibitory concentration MIC (agar method): 0.5%

## CCCCCCCOC(=O)[C@@H](C)O [Embodiment 3-3, R-(−)-lactate heptyl ester]
[1]
  MIC: 28.6 µg/mL (≈ 152 µM)
[2]
  Minimum inhibitory concentration MIC (agar method): 4.38%

## COC(=O)C[C@@H](C)O [Embodiment 2-1, R-(−)-3-hydroxybutyric methyl ester]
[1]
  MIC: 62.5 µg/mL (≈ 529 µM)
[2]
  Minimum inhibitory concentration MIC (agar method): 10%

## CCCCCCCOC(=O)C[C@@H](C)O [Embodiment 2-7, R-(−)-3-hydroxybutyrate heptyl ester]
[1]
  MIC: 31.2 µg/mL (≈ 154 µM)
[2]
  Minimum inhibitory concentration MIC (agar method): >15%

## CCCCCCCCOC(=O)C[C@@H](C)O [Embodiment 2-8, R-(−)-3-hydroxybutyrate octyl ester]
[1]
  MIC: 31.2 µg/mL (≈ 144 µM)
[2]
  Minimum inhibitory concentration MIC (agar method): >20%

## CCCCCCOC(=O)[C@@H](C)O [Embodiment 3-1, R-(−)-lactate hexyl ester]
[1]
  MIC: 1.95 µg/mL (≈ 11.2 µM)
[2]
  Minimum inhibitory concentration MIC (agar method): 0.25%

## CCCOC(=O)C[C@@H](C)O [Embodiment 2-3, R-(−)-3-hydroxybutyrate propyl ester]
[1]
  MIC: 15.6 µg/mL (≈ 107 µM)
[2]
  Minimum inhibitory concentration MIC (agar method): 2%

## CCCCCCOC(=O)C[C@@H](C)O [Embodiment 2-6, R-(−)-3-hydroxybutyrate hexyl ester]
[1]
  MIC: 1.95 µg/mL (≈ 10.4 µM)
[2]
  Minimum inhibitory concentration MIC (agar method): 0.25%

## CCCCOC(=O)C[C@@H](C)O [Embodiment 2-4, R-(−)-3-hydroxybutyrate butyl ester]
[1]
  MIC: 7.81 µg/mL (≈ 48.7 µM)
[2]
  Minimum inhibitory concentration MIC (agar method): 1%
